Earlier results in PubChem BioAssay AID1259409 (Chemical Carcinogenesis Research Information System (CCRIS), 2018).

Test system: rodent chemically induced tumor inhibition, incidence and multiplicity
Test: CCRIS tumor inhibitor studies

In the case of `Cc1cc(C(C)(C)C)c(O)c(C(C)(C)C)c1`, the “tumour outcome (control, treated, inhibition, significance)” value (Carcinogen: 2-ACETYLAMINOFLUORENE, 53-96-3, Dose [Inhibitor]: 0, 3000 PPM IN DIET CONCURRENTLY WITH CARCINOGEN FOR STUDY DURATION (STUDY DURATION: 76 WK), Route [Inhibitor]: ORAL, Species: RAT, Strain/Sex: F344/MALE, Target Tissue: Type of Lesion: LIVER: HEPATOCELLULAR TUMOR, Dose [Carcinogen]: 50 PPM IN DIET FOR 76 WK) is listed as 20/20 (100%), 18/18 (100%), 0%, not calculated, the outcome (Carcinogen: 2-ACETYLAMINOFLUORENE, 53-96-3, Dose [Inhibitor]: 0, 6000 PPM IN DIET CONCURRENTLY WITH CARCINOGEN FOR STUDY DURATION (STUDY DURATION: 76 WK), Route [Inhibitor]: ORAL, Species: RAT, Strain/Sex: F344/MALE, Target Tissue: Type of Lesion: LIVER: HEPATOCELLULAR CARCINOMA, Dose [Carcinogen]: 50 PPM IN DIET FOR 76 WK) is listed as 4.8, 0.7, 85%, p<0.05 and the “tumour outcome (control, treated, inhibition, significance)” value (Carcinogen: 2-ACETYLAMINOFLUORENE, 53-96-3, Dose [Inhibitor]: 0, 6000 PPM IN DIET CONCURRENTLY WITH CARCINOGEN FOR STUDY DURATION (STUDY DURATION: 76 WK), Route [Inhibitor]: ORAL, Species: RAT, Strain/Sex: F344/MALE, Target Tissue: Type of Lesion: LIVER: HEPATOCELLULAR TUMOR, Dose [Carcinogen]: 50 PPM IN DIET FOR 76 WK) is listed as 20/20 (100%), 19/19 (100%), 0%, not calculated. The “tumour outcome (control, treated, inhibition, significance)” value (Carcinogen: 7,12-DIMETHYLBENZ(A)ANTHRACENE, 57-97-6, Dose [Inhibitor]: 0.3% IN DIET FROM WEANING ONWARD (STUDY DURATION: 6 MO AFTER CARCINOGEN ADMINISTRATION), Route [Inhibitor]: ORAL, Species: RAT, Strain/Sex: SPRAGUE-DAWLEY/FEMALE, Target Tissue: Type of Lesion: MAMMARY GLAND: ADENOCARCINOMA, Dose [Carcinogen]: 10 MG/RAT IN 1 ML STRIPPED CORN OIL, SINGLE DOSE ON D 50 FOLLOWING 24 HR FASTING PERIOD, Promoter: NONE USED) was 100%, 55%, 45%, not calculated, the “tumour outcome (control, treated, inhibition, significance)” value (Carcinogen: 7,12-DIMETHYLBENZ(A)ANTHRACENE, 57-97-6, Dose [Inhibitor]: 2500 MG/KG IN DIET STARTING 1 WK AFTER CARCINOGEN AND CONTINUING FOR 30 WK (STUDY DURATION: 30 WK), Route [Inhibitor]: ORAL, Species: RAT, Strain/Sex: SPRAGUE-DAWLEY/FEMALE, Target Tissue: Type of Lesion: MAMMARY GLAND: TUMOR, Dose [Carcinogen]: 8 MG IN 1 ML SESAME OIL ADMINISTERED ONCE, Promoter: NONE USED) was 88%, 68%, 23%, not significant and the “tumour outcome (control, treated, inhibition, significance)” value (Carcinogen: 7,12-DIMETHYLBENZ(A)ANTHRACENE, 57-97-6, Dose [Inhibitor]: 5000 MG/KG IN DIET STARTING 1 WK AFTER CARCINOGEN AND CONTINUING FOR 30 WK (STUDY DURATION: 30 WK), Route [Inhibitor]: ORAL, Species: RAT, Strain/Sex: SPRAGUE-DAWLEY/FEMALE, Target Tissue: Type of Lesion: MAMMARY GLAND: TUMOR, Dose [Carcinogen]: 8 MG IN 1 ML SESAME OIL ADMINISTERED ONCE, Promoter: NONE USED) was 88%, 72%, 18%, not significant. For the same compound, the “tumour outcome (control, treated, inhibition, significance)” value (Carcinogen: 7,12-DIMETHYLBENZ(A)ANTHRACENE, 57-97-6, Dose [Inhibitor]: 5000 MG/KG IN DIET STARTING 2 WK BEFORE UNTIL 1 WK AFTER CARCINOGEN ADMINISTRATION (STUDY DURATION: 32 WK), Route [Inhibitor]: ORAL, Species: RAT, Strain/Sex: SPRAGUE-DAWLEY/FEMALE, Target Tissue: Type of Lesion: MAMMARY GLAND: TUMOR, Dose [Carcinogen]: 8 MG IN 1 ML SESAME OIL ADMINISTERED ONCE, Promoter: NONE USED) was 88%, 52%, 41%, p<0.01, the “tumour outcome (control, treated, inhibition, significance)” value (Carcinogen: 7,12-DIMETHYLBENZ[A]ANTHRACENE, 57-97-6, Dose [Inhibitor]: 0, 200 MG/KG BW/D FOR 3 WK BEGINNING 2 WK PRIOR TO CARCINOGEN DOSE (STUDY DURATION: 24 WK), Route [Inhibitor]: INTRAPERITONEAL, Species: RAT, Strain/Sex: SPRAGUE-DAWLEY/FEMALE, Target Tissue: Type of Lesion: MAMMARY GLAND: TUMOR, Dose [Carcinogen]: 33.3 MG/KG BW IN 0.25 ML CORN OIL ONCE AT 50 D OF AGE, Promoter: NONE USED) was 91%, 56%, 38%, not calculated and the “tumour outcome (control, treated, inhibition, significance)” value (Carcinogen: 7,12-DIMETHYLBENZ[A]ANTHRACENE, 57-97-6, Dose [Inhibitor]: 0.3% IN DIET, DAILY BEFORE, SIMULTANEOUS WITH, AND THROUGHOUT THE EXPERIMENT, HIGH POLYUNSATURATED FAT DIET (STUDY DURAT, Route [Inhibitor]: ORAL, Species: RAT, Strain/Sex: SPRAGUE-DAWLEY/FEMALE, Target Tissue: Type of Lesion: MAMMARY GLAND: PARENCHYMAL CARCINOMA, Dose [Carcinogen]: 10 MG IN 1 ML CORN OIL AT 50 D OF AGE ONCE, Promoter: NONE USED) was 30/30 (100%), 16/30 (53%), 47%, not calculated. The “tumour outcome (control, treated, inhibition, significance)” value (Carcinogen: 7,12-DIMETHYLBENZ[A]ANTHRACENE, 57-97-6, Dose [Inhibitor]: 0.3% IN DIET, DAILY BEFORE, SIMULTANEOUS WITH, AND THROUGHOUT THE EXPERIMENT, HIGH SATURATED FAT DIET (STUDY DURATION: 3, Route [Inhibitor]: ORAL, Species: RAT, Strain/Sex: SPRAGUE-DAWLEY/FEMALE, Target Tissue: Type of Lesion: MAMMARY GLAND: PARENCHYMAL CARCINOMA, Dose [Carcinogen]: 10 MG IN 1 ML CORN OIL AT 50 D OF AGE ONCE, Promoter: NONE USED) was 23/30 (77%), 9/30 (30%), 60%, not calculated, the “tumour outcome (control, treated, inhibition, significance)” value (Carcinogen: 7,12-DIMETHYLBENZ[A]ANTHRACENE, 57-97-6, Dose [Inhibitor]: 0.3% IN DIET, DAILY BEFORE, SIMULTANEOUS WITH, AND THROUGHOUT THE EXPERIMENT, LOW FAT DIET (STUDY DURATION: 32 WK), Route [Inhibitor]: ORAL, Species: RAT, Strain/Sex: SPRAGUE-DAWLEY/FEMALE, Target Tissue: Type of Lesion: MAMMARY GLAND: PARENCHYMAL CARCINOMA, Dose [Carcinogen]: 10 MG IN 1 ML CORN OIL AT 50 D OF AGE ONCE, Promoter: NONE USED) was 13/30 (43%), 10/30 (33%), 23%, not calculated and the “tumour outcome (control, treated, inhibition, significance)” value (Carcinogen: 7,12-DIMETHYLBENZ[A]ANTHRACENE, 57-97-6, Dose [Inhibitor]: 0.3% IN HIGH POLYUNSATURATED FAT DIET DAILY STARTING 29 D BEFORE CARCINOGEN TREATMENT AND CONTINUING FOR THE DURATION OF, Route [Inhibitor]: ORAL, Species: RAT, Strain/Sex: SPRAGUE-DAWLEY/FEMALE, Target Tissue: Type of Lesion: MAMMARY GLAND: ADENOCARCINOMA, Dose [Carcinogen]: 10 MG IN 1 ML STRIPPED CORN OIL ONCE AT AGE 50 D, Promoter: NONE USED) was 100%, 55%, 45%, not calculated. The “tumour outcome (control, treated, inhibition, significance)” value (Carcinogen: 7,12-DIMETHYLBENZ[A]ANTHRACENE, 57-97-6, Dose [Inhibitor]: 0.3% IN HIGH SATURATED FAT DIET DAILY STARTING 29 D BEFORE CARCINOGEN TREATMENT AND CONTINUING FOR THE DURATION OF THE S, Route [Inhibitor]: ORAL, Species: RAT, Strain/Sex: SPRAGUE-DAWLEY/FEMALE, Target Tissue: Type of Lesion: MAMMARY GLAND: ADENOCARCINOMA, Dose [Carcinogen]: 10 MG IN 1 ML STRIPPED CORN OIL ONCE AT AGE 50 D, Promoter: NONE USED) was 65%, 35%, 46%, not calculated, the “tumour outcome (control, treated, inhibition, significance)” value (Carcinogen: 7,12-DIMETHYLBENZ[A]ANTHRACENE, 57-97-6, Dose [Inhibitor]: 0.3% IN LOW FAT DIET DAILY STARTING 29 D BEFORE CARCINOGEN TREATMENT AND CONTINUING FOR THE DURATION OF THE STUDY (STUDY, Route [Inhibitor]: ORAL, Species: RAT, Strain/Sex: SPRAGUE-DAWLEY/FEMALE, Target Tissue: Type of Lesion: MAMMARY GLAND: ADENOCARCINOMA, Dose [Carcinogen]: 10 MG IN 1 ML STRIPPED CORN OIL ONCE AT AGE 50 D, Promoter: NONE USED) was 35%, 25%, 29%, not calculated and the “tumour outcome (control, treated, inhibition, significance)” value (Carcinogen: 7,12-DIMETHYLBENZ[A]ANTHRACENE, 57-97-6, Dose [Inhibitor]: 1 MG APPLIED ONCE 5 MIN BEFORE DMBA (STUDY DURATION 20 WK), Route [Inhibitor]: DERMAL, Species: MOUSE, Strain/Sex: CD-1/FEMALE, Target Tissue: Type of Lesion: SKIN: PAPILLOMA, Dose [Carcinogen]: 2.56 UG APPLIED ONCE 5 MIN AFTER INHIBITOR, Promoter: 12-O-TETRADECANOYLPHORBOL-13-ACETATE, 16561-29-8) was 80%, 58%, 28%, not calculated.
